Assay results as given in patent US20130171273A1, “METHOD OF TREATING IMPAIRED WOUND HEALING IN DIABETICS” (KUWAIT UNIVERSITY, priority 2011, published 2013).
“And” between values parts separate entries of the source, which are not always exact repeats. Equal values may be shown once. Read-outs that look alike come from different tables or passages of the source. Values belong to the molecule of their own block, whether it stands above or below them.

How the values were obtained:
[1] = system: control fibroblasts (CFs); assay: mRNA of Nrf2-regulated genes by real-time PCR in control fibroblasts; assay type: cell-based, rat
Method: (§1) To quantify responses to oxidative stress activators, fibroblasts of control and of type 2 diabetes were treated with vehicle or the OS-inducing agents ‘t-butylhydroquinone (tBHQ, 100 μM, Sigma) or oligomycin (15 μM, Sigma) for 16 h. The Cells were processed for total RNA extraction or western blotting analysis as outlined below. Both of these compounds were dissolved in ethanol with a final concentration of 0.01%. […] To measure transcription of Nrf2 target genes and NADPH oxidase genes, RNA (1 μg) was isolated from cultured fibroblasts using Trizol reagent (Invitrogen) and reverse transcribed for 1 h at 37° C. using the High Capacity cDNA Reverse Transcription Kit. Real-time quantitative RT-PCR was performed with the TaqMan Gene Expression Assay and was normalized against 18S RNA using an ABI 7900 Real-time PCR System (Applied Biosystems). Primers and probes were designed by and purchased from Applied Biosystems. Primer efficiency and specificity were verified by amplifying standard dilutions of a probe obtained by pooling all the samples and by melting curve analysis, respectively.

[2] = system: control fibroblasts (CFs); assay: Caspase-3-like activity (Apo-ONE caspase-3/7 assay), control fibroblasts; assay type: cell-based, rat
Method: (§2) To quantify relative cell death in control and diabetic fibroblasts, cells were seeded at 1×10^4 cells/well on a 96-well plate. After a 24 h incubation period, the cells were exposed to various concentrations of HP in serum-free medium at 37° C. for 2 h [lactate dehydrogenase (LDH), a marker for necrotic cell death] or for 16 h (cell viability and apoptosis assay). Quantification of cell viability and caspase-3-like activity was achieved using a Cell Counting Kit-8 (Dojindo, Kumamoto, Japan) and an Apo-ONE homogenous caspase-3/7 assay (Promega), respectively. The values obtained were normalized to the vehicle-treated cells. To measure the rate of necrotic cell death, a LDH release assay was performed using a CytoTox-ONE Homogeneous Membrane Integrity Assay kit (Promega). In some experiments, cells were pre-incubated for 1 h with 2 μg of the ATPase inhibitor oligomycin before exposure to HP.

Nrf2 [3] = assay: Nuclear accumulation of Nrf2 in diabetic fibroblasts (subcellular fractionation, Western blot); assay type: cell-based, rat; conditions: for nuclear accumulation of Nrf2: DFs, OS-inducing agent, compared with CFs, FIG. 3D
Method: To quantify responses to oxidative stress activators, fibroblasts of control and of type 2 diabetes were treated with vehicle or the OS-inducing agents ‘t-butylhydroquinone (tBHQ, 100 μM, Sigma) or oligomycin (15 μM, Sigma) for 16 h. The Cells were processed for total RNA extraction or western blotting analysis as outlined below. Both of these compounds were dissolved in ethanol with a final concentration of 0.01%. […] To analyze protein expression and phosphorylation, cells were seeded in 6-well plates and treated as described above. They were washed with ice-cold PBS, scraped into PBS, and centrifuged at 1000 rpm for 5 min. The cell pellet was then subjected to subcellular fractionation. To make the total cell lysate, the cells were lysed with RIPA buffer supplemented with a protease inhibitor mixture and a phosphatase inhibitor mixture. The protein concentration was determined using BCA protein assay reagents (Pierce). Fifty micrograms of total cell lysate (or cytosolic, or nuclear) fractions were resolved on a 10% SDS-polyacrylamide gel, Western blotted, and probed with antibodies specific for Nrf2, Kcap1 or Fyn (all from Santa Cruz) or GSK-3β, GSK-3β-phosho-Ser9 (P-GSK3-β, and phosphor GSK-α/-β (pTyr279/pTyr216) (Cell Signaling). The purity of the subcellular fractions was confirmed using the anti-LDH antibody (Chemieon International) and the anti-PCNA antibody (Santa Cruz) for cytosolic and nuclear fractions, respectively. The levels of protein on a Western blot were assessed using Quantity One Image software (Bio-Rad) and normalized against suitable loading controls, including anti-β-actin antibody for total and cytosolic fractions and anti-PCNA antibody for the nuclear fraction.

Nrf2 [4] = assay: Nuclear accumulation of Nrf2 in control fibroblasts (subcellular fractionation, Western blot); assay type: cell-based, rat; conditions: CFs, OS-inducing agent, FIG. 3D
Method: (§3) To quantify responses to oxidative stress activators, fibroblasts of control and of type 2 diabetes were treated with vehicle or the OS-inducing agents ‘t-butylhydroquinone (tBHQ, 100 μM, Sigma) or oligomycin (15 μM, Sigma) for 16 h. The Cells were processed for total RNA extraction or western blotting analysis as outlined below. Both of these compounds were dissolved in ethanol with a final concentration of 0.01%. […] To analyze protein expression and phosphorylation, cells were seeded in 6-well plates and treated as described above. They were washed with ice-cold PBS, scraped into PBS, and centrifuged at 1000 rpm for 5 min. The cell pellet was then subjected to subcellular fractionation. To make the total cell lysate, the cells were lysed with RIPA buffer supplemented with a protease inhibitor mixture and a phosphatase inhibitor mixture. The protein concentration was determined using BCA protein assay reagents (Pierce). […]

[5] = system: diabetic fibroblasts (DFs); assay: Superoxide generation in diabetic fibroblasts (dihydroethidium fluorescence); assay type: cell-based, rat; conditions: superoxide generation over a 30-minute period, FIG. 1A
Method: Primary rat fibroblasts were derived from dorsal skin biopsies performed on four diabetic Goto Kakizaki rats (DFs) and four age (12-14 months) and sex (female) matched Wistar control rats (CFs). After sterilization in povidine solution, the rat skin was washed in sterile water and rinsed in 70% ethanol in phosphate buffered saline (PBS). The epidermis and dermis were separated following overnight incubation in 0.25% Trypsin/EDTA at 4° C. Samples were washed, diced and digested for thirty min at 37° C. in collagenase type I (250 U/ml) dissolved in Dulbecco's modified Eagle medium (DMEM; Invitrogen) containing penicillin (100 U/ml), streptomycin (100 μg/ml), 2 mM L-glutamine and 26 mM HEPES. After collagenase treatment, the cells were dislodged, centrifuged and resuspended in medium supplemented with 10% fetal bovine serum. […]
To characterize oxidative conditions of cutaneous tissue, cells in 96-well plates were washed with Krebs Ringer buffer and then incubated at 37° C. in the presence of 10 μM of dihydroethidium (DHE, Molecular Probes). Fluorescence readings were taken at Ex 530 nm and Em=595 nm over a 30 min period. The determination of GSH (reduced glutathione) was achieved using the fluorescence probe monochlorobimane (MCB, Molecular Probes). Cells were incubated with 100 μl of […] MCB for 20 min at 37° C., and the fluorescence intensity was measured at Ex=390 nm and Em=460 nm. […]

NADPH oxidase = assay: NADPH-dependent superoxide generation in membrane fractions (lucigenin chemiluminescence / SOD-inhibitable cytochrome c reduction); assay type: biochemical, rat; conditions: membrane fractions of diabetic fibroblasts
Method: To study NADPH oxidase activity, cell pellets collected by trypsinization and suspended in 20 mM MOPS-KOH buffer, pH 7.4 containing 250 mM, 0.1 mM EDTA and a cocktail of protease inhibitors. The cells were disrupted by sonication on ice and the cell lysates were fractionated by centrifugation twice at 29,000×g for 15 min, discarding the supernatant each time. The pellet was resuspended in sucrose buffer and assayed for NADPH oxidase activity using lucigenin chemiluminescence or cytochrome c reduction-based assay. Briefly, membrane fractions (˜10 μg protein) were diluted in sucrose buffer/protease inhibitors and then lucigenin was added ((5 μM) in the presence or absence of 100 μM NADPH. The chemiluminescence was measured in 30 sec intervals over 5 min. The specificity of superoxide measured was confirmed by adding peg-SOD (10 units/ml). For the assessment of SOD-inhibitable cytochrome reduction, ˜100 μg membrane protein was added to a buffer containing cytochrome c (50 μM), NADPH (100 μM) and in the presence or absence of peg-SOD. After one hr, activity was measured as the SOD-inhibitable increase in absorbance at 550 nm (EmM=21). Assay conditions were established confirming the linearity of superoxide production with time and protein concentrations.
Following the procedures above, it was determined that superoxide generation over a 30-minute period was 55% higher in DFs relative to corresponding control values (FIG. 1A). This radical is a by-product of mitochondrial respiration and enzymatic oxidases. Accordingly, it was examined whether the observed elevation in superoxide stemmed from enhanced activity of the non-phagocytic NAD(P)H oxidase.

CFs and DFs = assay: Lipid peroxidation (DPPP fluorescence) in control and diabetic fibroblasts; assay type: cell-based, rat; conditions: stressed CFs and DFs; markedly higher in diabetic than in control cells, FIG. 1E
Method: To measure lipid peroxidation and plasma membrane redox system (PMRS) enzymes, a total of 10-20 μg of purified plasma membrane protein in a butler containing 50 mM Tris at pH 7.6, 0.2 mM NADH, and 0.1% Triton X-100 was analyzed in the spectrophotometric determination (340 nm) of the activities of NADH CoQ and NADH-ascorbate free radical reductase [also known cytochrome b5 reductase, following the respective additions of coenzyme Q (0.2 mM) and fresh ascorbate (0.4 mM). NQO1 activity was measured at 550 nm in solution buffer containing 5 mM. Tris-HCl at pH 7.6, 0.2 mM NADPH, 0.1% Triton X-100, 10 μM menadione and 75 μM cytochrome c with or without dicoumarol. Calculation of the activity of NQO1 was based on the difference between the uninhibited and the dicoumarol-inhibited samples. Cells were assessed for lipid peroxidation using the diphenyl-1-pyrenylphosphine (DPPP, Invitrogen) fluorescence-based assay. […] The plate was read for DPPP fluorescence (excitation at 340 nm and emission at 405 nm) in a 96-well fluorescence plate reader. […]
To monitor whether the diabetes-induced elevation in intracellular levels of ROS may reflect an increase in lipid peroxidation, a marker of accumulative oxidative stress (OS), the lipid peroxide formation of CFs and DFs at baseline and under stressed conditions was measured using the dye DPPP, which intercalates and reacts with lipid hydroperoxides.

[6] = system: diabetic fibroblasts (DFs); conditions: for loss in cell viability: rat, 16 h
Method: as §2

[7] = system: control fibroblasts (CFs); conditions: rat, 16 h
Method: as §2

[8] = system: diabetic fibroblasts (DFs); assay: mRNA of Nrf2-regulated genes by real-time PCR in diabetic fibroblasts; assay type: cell-based, rat; conditions: tBHQ treatment
Method: as §1

Nrf2 [9] = assay: Nrf2 level in total cell lysates (Western blot); assay type: cell-based, rat; conditions: control and diabetic fibroblasts, to about the same extent, FIG. 3A
Method: as §3

[10] = CFs / normal fibroblasts, tBHQ treatment

SMILES: CC[C@H]1/C=C/C=C/C[C@@H](C)[C@H](O)[C@@](C)(O)C(=O)[C@@H](C)[C@H](O)[C@@H](C)C(=O)[C@@H](C)[C@H](O)[C@@H](C)/C=C/C(=O)O[C@@H]2[C@H](C)[C@H](CC1)O[C@]1(CC[C@H](C)[C@H](C[C@@H](C)O)O1)[C@H]2C [oligomycin]
expression of Mn-SOD, catalase, GSTP1, GCLC and NQO1 mRNA ([1]; CFs, oligomycin treatment, FIG. 3F): increase in the expression of Mn-SOD, catalase, GSTP1 and GCLC but not of NQO1 | ability of HP to enhance caspase-3-like activities ([2]; CFs pre-treated with a 2-μg dose of oligomycin): suppresses | nuclear accumulation of Nrf2 (Nrf2 [3]): far smaller increase | Nrf2 in the nuclei-enriched fraction (Nrf2 [4]): markedly elevated

reduction of NADPH-dependent superoxide production (activity) (NADPH oxidase; FIG. 1B): about 87%
SMILES: c1ccc(Cn2nnc3c(Sc4nc5ccccc5o4)ncnc32)cc1 [VAS2870]
reduction of the diabetes-related increase in superoxide [5]: about 31%

SMILES: OO [HP, hydrogen peroxide]
fold increase in caspase-3-like activity ([2]; controls (CFs), 50 μM HP): 8.2 fold | lipid peroxidation (DPPP fluorescence) (CFs and DFs): enhancement in lipid peroxidation | fold increase in caspase-3-like activity ([6]; 50 μM HP): 5.4 fold | loss in cell viability ([6]; 37.5 μM): 17% | loss in cell viability ([6]; 50 μM): 55% | loss in cell viability ([6]; 75 μM): 78% | loss in cell viability ([7]; 37.5 μM): 6% | loss in cell viability ([7]; 50 μM): 22% | loss in cell viability ([7]; 75 μM): 53%

SMILES: CC(C)(C)OO [t-BHP]
lipid peroxidation (DPPP fluorescence) (CFs and DFs): enhancement in lipid peroxidation

SMILES: CC(C)(C)c1cc(O)ccc1O [tBHQ, tert-butylhydroquinone]
percent increase of Nrf2-dependent transcripts (catalase, GSTP1, GCLC, NQO1) ([8]; DFs, FIG. 3E): 32%-78% | upregulation of anti-oxidative enzymes ([8]; cells with overabundant oxidative stress and impaired Nrf2 response): 1.5 to 2 fold | increase of GCLC mRNA expression [1, 10]: 5-7 fold and 5.7 fold | increase of GSTP1 mRNA expression [1, 10]: 5-7 fold and 6.3 fold | increase of NQO1 mRNA expression [1, 10]: 4-6 fold and 4.8 fold | increase of catalase mRNA expression [1, 10]: 7-10 fold and 8.8 fold | increase of GR mRNA expression ([1]; normal fibroblasts, tBHQ treatment): 3-4 fold | levels of Cu/Zn SOD or Mn-SOD (SOD2) mRNA ([1]; tBHQ treatment, cell type not given): no observable changes | nuclear accumulation of Nrf2 (Nrf2 [3]): far smaller increase | Nrf2 in the nuclei-enriched fraction (Nrf2 [4]): markedly elevated | level of Nrf2 in total cell lysates (Nrf2 [9]): elevates

SMILES: Cn1sc(=O)n(Cc2ccccc2)c1=O [TDZD-8, 4-benzyl-2-methyl-1,2,4-thiadiazolidine-3,5-dione]
basal and inducible levels of nuclear Nrf2 (Nrf2 [3]; DFs pretreated 8 h with lithium chloride 50 mM or TDZD-8 50 μM, FIG. 4B only shown for lithium): partially normalized

effect on superoxide production (NADPH oxidase): did not have a significant effect
SMILES: Oc1ncnc2[nH]ncc12 [allopurinol]

SMILES: COC(=O)[C@@H](N)CCCNC(=N)N[N+](=O)[O-] [L-NAME]
effect on superoxide production (NADPH oxidase): did not have a significant effect
